Measured values taken from ChEMBL document CHEMBL3507680, “University of Dundee, Gates Library screen for HepG2 cell viability”.

assay: Human HepG2 cell viability assay in 384 well format; type: toxicity, cell-based; parameters: dose 125 nL, time 70.5 hour; concentration not given beside the values; conditions: HepG2 cells, read-out: Inhibition

Row | SMILES | cytotoxicity at 70.5 h [%]
1 | Cn1cc(NC(=O)CNC(=O)N2CCN(c3ccc(Cl)cc3)CC2)cn1 | -5.62
2 | CCOc1cc(C(=O)N2CCCC(c3noc(CC)n3)C2)ccn1 (stereo unspecified) | -2.83
3 | CN(C)C(C(=O)N1CC(Oc2ccccc2F)C1)c1ccccc1F (stereo unspecified) | 12.3
4 | COc1ncccc1CNC1CCc2c(ccc(=O)n2C)C1 (stereo unspecified) | -1.32
5 | Cc1n[nH]c(C)c1CC(=O)N1CCCN(C)C2(CCN(C)CC2)C1 | 23.3
6 | CC(C)S(=O)(=O)c1ccccc1C(=O)NCC1Cc2ccccc2O1 (stereo unspecified) | -1.85
7 | COc1ccc(C(=O)NC2CC2)c(OC2CCN(C3CCC3)CC2)c1 | -3.47
8 | Cc1nc(CCCNC(=O)c2coc(CN3CCOCC3)c2)sc1C | -0.625
9 | CC(C)(C)c1nc(CN2CCC(c3nc4cc(Cl)ccc4o3)CC2)no1 | 15.4
10 | CS(=O)(=O)NC[C@]12COC[C@H]1CN(C(=O)c1ccccc1)C2 | -3.75
11 | c1cnnc(N2CCCC(NCc3nc(-c4ccsc4)no3)C2)c1 (stereo unspecified) | -0.51
12 | CC(C)C(=O)NC1CC2(CCN(CC(=O)N(C)C)CC2)c2ccccc21 (stereo unspecified) | -2.53
13 | N#CC1(NC(=O)c2ccn(-c3ccccc3Cl)n2)CCSC1 (stereo unspecified) | -10.3
14 | CN(c1ccc(C(=O)NCCCN2CCCCC2)c(Cl)c1)S(C)(=O)=O | -2.79
15 | CC(C)(C)CC(=O)NCCn1ccc(-c2ccncc2)n1 | -15.2
16 | Cc1cc(C(C)NC(=O)Cn2nc(C)c3ccccc3c2=O)c(C)o1 (stereo unspecified) | 18.3
17 | CC1(C(=O)N2CCN(c3cnccn3)CC2)CNCCO1 (stereo unspecified) | 28.1
18 | CC(C)N(C)Cc1nnc2n1CCCN(C(=O)c1ccco1)C2 | -6.16
19 | c1cnc(N2CCO[C@H]3[C@H](OCCN4CCCC4)CC[C@@H]32)nc1 | 0.11
20 | CN(Cc1ccccc1)S(=O)(=O)N1C[C@H](C2CC2)[C@@H](N)C1 | -1.23
21 | Cc1cc(NS(=O)(=O)c2ccccc2F)ccc1-n1cccc1C(=O)O | -1.31
22 | Cc1noc(C)c1CN1CCCC1c1nc(-c2ccccc2)no1 (stereo unspecified) | -2.38
23 | O=C(CCc1cscn1)N1CCCC(n2ccnc2)C1 (stereo unspecified) | 2.29

Row | SMILES | cytotoxicity at 70.5 h [%]
24 | CCC(C)CS(=O)(=O)NC(=O)C1CCC1 (stereo unspecified) | 21.3
25 | CCc1cc(NCCN2CCNC2=O)n2nccc2n1 | 3.72
26 | CC[S+](CC)[c-]1c(=O)[nH]c(=O)n(CCc2ccc(F)cc2)c1=O | 3.7
27 | c1cc(CN2CCN(Cc3ccon3)C3(CCCCC3)C2)no1 | 4.47
28 | Cc1ccc(NC2CCN(C(=O)c3cnc(C)s3)CC2)nn1 | -6.52
29 | O=C(NCC1CC1)C1CN(C(=O)Nc2ccccc2)CC12CCOCC2 (stereo unspecified) | -5.6
30 | CN1CCC(N2CCCC(C(=O)N3Cc4ccccc4C3)C2)CC1 (stereo unspecified) | -14.7
31 | Cn1cc(CN(C(=O)C2COc3ccccc3C2)C2CC2)cn1 (stereo unspecified) | -9.16
32 | O=C(c1ccncc1)N1CCN2C[C@H](Oc3cccc(F)c3)C[C@H]2C1 | -0.421
33 | O=C(NCc1nn(-c2ccccc2)c2c1CCC2)NC1CCC(O)CC1 (stereo unspecified) | -8.01
34 | Cc1cc(C(F)(F)F)nc(N(C)Cc2c(C)noc2C)n1 | 13.3
35 | CCOCn1cc(NC(=O)C2CCN(S(C)(=O)=O)CC2)cn1 | -2.16
36 | CCOCC1CC2(CCN(C(=O)CC3=CCCCC3)CC2)CO1 (stereo unspecified) | 1.88
37 | Cc1cc(C(=O)NCC(F)(F)F)c2c(C3CCNCC3)noc2n1 | 25.3
38 | Cc1ncsc1CN1CC[C@H]2OCC[C@@]2(C(=O)NC2CC2)C1 | -2.8
39 | Cc1ccc(C)c(-n2ncc(C(=O)N(C)CCc3ccccn3)c2N)c1 | 4.61
40 | COc1ccc(CNc2ncc(-c3cc(C)no3)c(C(C)C)n2)cc1 | -4.08
41 | CC(CC(=O)Nc1ncn(CC(=O)N2CCCCCC2)n1)C1CC1 (stereo unspecified) | 0.138
42 | O=C(C(c1ccc(F)cc1)N1CCCCC1)N1CCn2cncc2C1 (stereo unspecified) | -1.97
43 | COCCN1CCN(CC(O)c2cc(OC)ccc2OC)CC1 (stereo unspecified) | -6.61
44 | Cc1cccc(CN2CCO[C@H]3[C@@H](OCc4ccncc4)CC[C@@H]32)n1 | -7.09
45 | CCS(=O)(=O)c1ccccc1N1CCC(NC(=O)C2CC2)CC1 | 1.87
46 | CC(C(=O)NCC(C)(C)c1ccc2c(c1)OCCO2)n1cncn1 (stereo unspecified) | 0.318

Row | SMILES | cytotoxicity at 70.5 h [%]
47 | O=C(C1CCC1)N1CCCC(c2cccc(-n3ccnc3)n2)C1 (stereo unspecified) | -6.13
48 | Cc1cc(C)n(CC2CCCN2C(=O)Cc2cn3ccccc3n2)n1 (stereo unspecified) | -3.71
49 | Cc1ccc(C(=O)N2CCN(C(=O)Nc3ccccn3)CC2)o1 | 29.1
50 | O=C(NCC(O)C1CC1)Nc1cnn(Cc2ccccc2)c1 (stereo unspecified) | -7.29
51 | O=C(c1ccco1)N1Cc2nccn2CC(Cn2ncccc2=O)C1 (stereo unspecified) | -6.66
52 | Cc1cc2[nH]c(=O)c(=O)[nH]c2cc1S(=O)(=O)NC1CCCCC1 | -3.77
53 | O=C1CCC(C(=O)Nc2ccc(=O)n(Cc3ccc(Cl)c(Cl)c3)c2)N1 (stereo unspecified) | -16.6
54 | Cc1cccc(CNc2cc(C3CCCNC3)ccn2)n1 (stereo unspecified) | -7.94
55 | COc1ccc(-n2ccc(C(=O)NCCN3CCCCC3)n2)cc1 | -4.18
56 | O=C(c1ccc(-n2ccnc2)nc1)N1CCN2CCCCC2C1 (stereo unspecified) | -10.4
57 | Cn1nccc1C1CCN(Cc2ccn(-c3ccccc3)n2)CC1 | -5.5
58 | O=C(Cn1cnc2sccc2c1=O)NCCCc1nnc2ccccn12 | -17.5
59 | Cn1cc(C(=O)NCc2cn3c(n2)CN(Cc2ccccn2)CC3)cn1 | -1.02
60 | CNc1cc(C2CN(CC(=O)N(C)C)CCO2)nc(C)n1 (stereo unspecified) | -5.66
61 | CC(NS(=O)(=O)N(C)C)c1cccc(-n2cccn2)c1 (stereo unspecified) | -3.97
62 | CC(=O)N1CCOC(c2ccnc(N(C)C)n2)C1 (stereo unspecified) | 1.91
63 | O=C([C@@H]1COC[C@H]2CN(C3CCCC3)C[C@H]21)N1CCCO1 | -1.63
64 | CCn1ccnc1CN1C[C@@H](NC(=O)C2CC2)[C@H](c2ccc(C)cc2)C1 | 23.8
65 | CCNc1ncc(C(=O)Nc2nnc(N3CCCCC3)[nH]2)s1 | -2.41
66 | C[C@H]1C[C@H]2CN(C(=O)CCc3ccccc3)CC[C@H]2O1 | -11.5
67 | CCOC(=O)C1CCN(C(=O)c2cnn(-c3ccccc3F)c2N)CC1 | -4.94
68 | CC(C)n1cc(CN2CCCN(C(=O)COC3CCCC3)CC2)cn1 | 1.39
69 | Cn1cc(CNC2CCc3c(ccc(=O)n3C)C2)cn1 (stereo unspecified) | -2.72

Row | SMILES | cytotoxicity at 70.5 h [%]
70 | O=C(CC1CC2(CCNCC2)c2ccccc21)NCC1CC1 (stereo unspecified) | 11.3
71 | O=C(c1ccsc1)N1CCC2(CC1)COCCN(Cc1ccncc1)C2 | -7.46
72 | O=C(C1CC1)N1CC[C@H](O)[C@@H]1Cc1ccccc1 | -3.79
73 | CCc1nc(CN(C(C)=O)C2CCN(CCc3ccccc3)C2)no1 (stereo unspecified) | -5
74 | CCNC(=O)N1CCC2(C1)c1ccccc1S(=O)(=O)N2CCOC (stereo unspecified) | 5.14
75 | COc1cccc(Cc2nnc(SCCS(C)(=O)=O)o2)c1 | -8.26
76 | COCc1nc2nc(O)c3c(n2n1)NC(=O)CC3c1ccccc1Cl (stereo unspecified) | 4.14
77 | COc1cccc(N2CCN(Cc3ccc4ccn(C)c4c3)CC2=O)c1 | -5.61
78 | CC(C)Cc1nc(CCn2ccc(=O)[nH]c2=O)n(-c2ccccn2)n1 | 11.3
79 | CN(C)CC1(O)CCN(C(=O)c2ccc(-n3cnnc3)cc2Cl)C1 (stereo unspecified) | 7.55
80 | CC1CCc2nc(O)c(C(=O)NCc3ccccn3)cc2C1 (stereo unspecified) | -5.86
81 | O=C(c1ccc(N2CCCC2)nc1)N1CCCC(c2nccs2)C1 (stereo unspecified) | -20.6
82 | Cc1cnn(CC2CN(Cc3nc(N)c4ccccc4n3)CCO2)c1 (stereo unspecified) | 22.8
83 | O=C(C(c1ccccc1)S(=O)(=O)c1ccccn1)N1CCCCC1 (stereo unspecified) | -7.07
84 | CC(C)N1CCC2(CC1)C(=O)N(c1cccnc1)c1ccc(F)cc12 | -0.653
85 | O=C(NCCn1ccnc1)N1CCCC1c1ccc2c(c1)OCCO2 (stereo unspecified) | -4.48
86 | Cc1nn(CCO)c(C)c1CNC1CCC(C)(C)c2ccccc21 (stereo unspecified) | -5.72
87 | Cn1ccnc1-c1ccc(NCC2COc3ccccc3O2)nn1 (stereo unspecified) | 1.13
88 | CN(Cc1ccc([S+](C)[O-])cc1)c1ccc(Cl)cn1 (stereo unspecified) | 20.8
89 | CCNC(=O)CNC(=O)Nc1c(F)cc(F)cc1-c1ccccc1 | -9.19
90 | CN(C)CCOCC1CN(Cc2ccccn2)Cc2nnn(C)c21 (stereo unspecified) | 0.965
91 | CCNC(=O)[C@@H]1C[C@H](NC(=O)Cc2ccsc2)CN1Cc1ccc(C)o1 | -8.83
92 | CN(Cc1cc(Br)c2c(c1)OCO2)Cc1cscn1 | -14.1

Row | SMILES | cytotoxicity at 70.5 h [%]
93 | Cc1nc2ccccc2nc1NCc1cccc(OCC2CCCO2)c1 (stereo unspecified) | 0.538
94 | COc1c(CNCCc2c[nH]c3ccccc23)c(C)nn1C | 22.7
95 | Cc1noc(CCCC(=O)N2CCNC(=O)C2)n1 | -9.21
96 | CC(C)Oc1cccc(C(=O)C2CCCN(C(=O)c3ccccn3)C2)c1 (stereo unspecified) | -8.75
97 | CCN(C(=O)c1ccc2nnc(C3CCN(S(C)(=O)=O)C3)n2c1)C(C)C (stereo unspecified) | -9.62
98 | CN(Cc1ccccc1)C(=O)c1cc2c(c(S(N)(=O)=O)c1)CCC2 | 30.7
99 | NC(=O)C1CN(C(=O)c2ccc(F)cc2)CCN1CCc1ccccc1 (stereo unspecified) | -4.6
100 | CN(C)C(=O)CN1CCCC1c1nc(N)ncc1-c1ccc(F)cc1 (stereo unspecified) | 2.44
101 | Cc1[nH]ccc1C(=O)NCc1ncoc1C | -2.23
102 | O=C(c1ccsc1)N1C[C@@H](CN2CCCC2)[C@@H](CO)C1 | 13.3
103 | COc1ccc(NC(=O)CNc2cccc3c2CCCC3)c(OC)c1 | 29.7
104 | O=C(NCC1(Sc2ccccc2)CC1)c1ccc(=O)[nH]n1 | -6.34
105 | CC(=O)N1CCCC(C(=O)c2cnn(-c3ccc(F)cc3)c2N)C1 (stereo unspecified) | -2.75
106 | CCn1c(N)nc2cc(C(=O)N3Cc4ccccc4C3)cnc21 | -4.1
107 | Cc1cc2ccccc2n1CCC(=O)NCCS(C)(=O)=O | -10.9
108 | Cn1ccnc1C(=O)N1C[C@@H]2CCN(c3cnccn3)C[C@@H]2C1 | -7.28
109 | COC(=O)c1ccc(N2CCN(CCC(=O)NC(N)=O)C(C)C2)cc1 (stereo unspecified) | -6.28
110 | Cc1nc(NCc2coc(-c3ccccc3)n2)cc(C2CCNCC2)n1 | -2.73
111 | COc1ccc(C(=O)Nc2ccc3ncn(C(C)C)c(=O)c3c2)cc1 | -3.51
